Patent US10065990B2, “Cyclic peptide compound, and preparation method, pharmaceutical composition and use thereof” (HANGZHOU GUANYU BIO-MEDICAL CO., LTD, priority 2013, dated 2018)
Where two headings read alike, the source gives them in different places.

Experiments:
[1] = biological target: T1, HDAC7 (Homo sapiens, UniProt Q8WUI4); assay: HDAC biochemical activity measurement (fluorescent substrate deacetylation);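 note: fluorogenic deacetylation assay using acetyl-lysine substrate at 20 µM, enzyme and compound incubated 30 min at 37 °C, then developer added, fluorescence read at 360/460 nm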; details: HDAC7; 37° C. 30 minutes
T1 sequence (Q8WUI4 1-952): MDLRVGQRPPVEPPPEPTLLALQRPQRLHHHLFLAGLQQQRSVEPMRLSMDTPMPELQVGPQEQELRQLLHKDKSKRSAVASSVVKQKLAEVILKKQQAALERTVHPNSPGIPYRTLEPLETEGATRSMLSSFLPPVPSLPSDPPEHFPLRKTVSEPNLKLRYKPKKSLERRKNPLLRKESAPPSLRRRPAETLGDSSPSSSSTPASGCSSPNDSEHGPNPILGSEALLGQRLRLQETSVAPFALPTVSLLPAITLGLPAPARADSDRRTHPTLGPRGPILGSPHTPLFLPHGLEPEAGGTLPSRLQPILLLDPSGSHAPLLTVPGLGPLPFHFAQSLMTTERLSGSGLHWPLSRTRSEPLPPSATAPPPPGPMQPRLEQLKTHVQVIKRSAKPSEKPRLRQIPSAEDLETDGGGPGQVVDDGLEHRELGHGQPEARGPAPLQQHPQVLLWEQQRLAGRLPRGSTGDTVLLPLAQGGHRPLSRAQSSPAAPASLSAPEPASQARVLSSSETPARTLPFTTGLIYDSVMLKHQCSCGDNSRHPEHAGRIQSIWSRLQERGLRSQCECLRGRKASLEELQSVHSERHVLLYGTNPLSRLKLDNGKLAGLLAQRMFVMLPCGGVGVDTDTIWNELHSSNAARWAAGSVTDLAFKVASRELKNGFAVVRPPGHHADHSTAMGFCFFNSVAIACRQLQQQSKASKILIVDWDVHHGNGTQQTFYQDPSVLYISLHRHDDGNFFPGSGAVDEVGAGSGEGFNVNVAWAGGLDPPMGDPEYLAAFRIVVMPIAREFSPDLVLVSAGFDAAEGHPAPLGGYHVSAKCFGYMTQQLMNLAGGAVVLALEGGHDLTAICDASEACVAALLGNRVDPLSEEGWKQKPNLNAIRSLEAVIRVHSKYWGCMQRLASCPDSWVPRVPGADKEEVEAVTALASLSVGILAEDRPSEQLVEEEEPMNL

[2] = tested on: KBM-5 (human chronic myelogenous leukemia); assay: MTT cancer cell growth inhibition; assay type: cell-based; details: Homo sapiens, KBM5, 72 h, MTT, 72 hours incubation, KBM-5 cells; read-out: GI50 KBM-5
Text: (§1) MTT assay principle is yellow MTT can penetrate membrane into the cell, succinic dehydrogenase of the mitochondria in living cells can make exogenous MTT reduction of insoluble in water of blue-violet acicular formazan for crystallization and deposition in the cell, crystallization can be dissolved dimethyl sulfoxide (DMSO) solution, detected its absorbance at 490 nm/570 nm wavelength by enzyme-linked immunosorbent assay, which can reflect the number of cells.
(§2) Using DMEM+10% FBS culture medium or using 1640+10% FBS culture, respectively.
(§3) a) Cells were seeded in 96-well plates with the inoculation of 1500/well, 190 μl/hole, 37° C., 5% of CO2 incubator overnight;
(§4) b) The next day each well was added 10 μl of different drugs. The final concentration of drug was 10^−5˜10^−10M, three parallel holes; 37° C., 5% CO2 culture incubator for 72 hours incubation;
(§5) c) Per well was added 20 μl 5 mg/ml of MTT, 37° C., 5% CO2 culture incubator for 4 hours incubation;
(§6) d) The supernatant was discarded. Each well was added 100 μl of DMSO and oscillation;
(§7) e) 570 nm readings. Calculate cell viability. GI50 calculation based on the results.

[3] = tested on: HCC827 (human non-small cell lung cancer cells); assay: MTT cancer cell growth inhibition; assay type: cell-based; details: Homo sapiens, HCC827, 72 h, MTT, 72 hours incubation, HCC827 cells; read-out: GI50 HCC827
Text: as §1, §2, §3, §4, §5, §6, §7

[4] = tested on: Hela (human cervical cancer cells); assay: MTT cancer cell growth inhibition; assay type: cell-based; details: Homo sapiens, HeLa, 72 h, MTT, 72 hours incubation, read-out: GI50 Hela
Text: as §1, §2, §3, §4, §5, §6, §7

[5] = tested on: lncap (prostate cancer cells); assay: MTT cancer cell growth inhibition; assay type: cell-based; details: Homo sapiens, LNCaP, 72 h, MTT, 72 hours incubation, read-out: GI50 lnca
Text: as §1, §2, §3, §4, §5, §6, §7

[6] = tested on: Huh-7 (human hepatoma cells); assay: MTT cancer cell growth inhibition; assay type: cell-based; details: Homo sapiens, Huh-7, 72 h, MTT, 72 hours incubation, Huh-7 cells; read-out: GI50 Huh-7
Text: as §1, §2, §3, §4, §5, §6, §7

[7] = tested on: K562 (human leukemia cells); assay: MTT cancer cell growth inhibition; assay type: cell-based; details: Homo sapiens, K562, 72 h, MTT, 72 hours incubation, K562 cells; read-out: GI50 K562
Text: as §1, §2, §3, §4, §5, §6, §7

[8] = tested on: H1975 (non-small cell lung adenocarcinoma); assay: MTT cancer cell growth inhibition; assay type: cell-based; details: Homo sapiens, NCI-H1975, 72 h, MTT, 72 hours incubation, H1975 cells; read-out: GI50 H1975
Text: as §1, §2, §3, §4, §5, §6, §7

[9] = tested on: HT1080 (human fibrosarcoma cells); assay: MTT cancer cell growth inhibition; assay type: cell-based; details: Homo sapiens, HT-1080, 72 h, MTT, 72 hours incubation, read-out: GI50 HT1
Text: as §1, §2, §3, §4, §5, §6, §7

[10] = tested on: KBM5-T315I (human chronic myelogenous leukemia); assay: MTT cancer cell growth inhibition; assay type: cell-based; details: Homo sapiens, 72 h, MTT, 72 hours incubation, KBM5-T315I cells; read-out: GI50 KBM5-T315I
Text: as §1, §2, §3, §4, §5, §6, §7

[11] = tested on: A549 (human lung cancer cells); assay: MTT cancer cell growth inhibition; assay type: cell-based; details: Homo sapiens, A549, 72 h, MTT, 72 hours incubation, read-out: GI50 A54
Text: as §1, §2, §3, §4, §5, §6, §7

[12] = tested on: Bel-7402 (human hepatoma cells); assay: MTT cancer cell growth inhibition; assay type: cell-based; details: Homo sapiens, Bel-7402, 72 h, MTT, 72 hours incubation, Bel-7402 cells; read-out: GI50 Bel-7402
Text: as §1, §2, §3, §4, §5, §6, §7

[13] = tested on: N-87 (human gastric cancer cells); assay: MTT cancer cell growth inhibition; assay type: cell-based; details: Homo sapiens, 72 h, MTT, 72 hours incubation, N-87 cells; read-out: GI50 N-87
Text: as §1, §2, §3, §4, §5, §6, §7

[14] = tested on: BGC-823 (human gastric cancer cells); assay: MTT cancer cell growth inhibition; assay type: cell-based; details: Homo sapiens, BGC-823, 72 h, MTT, 72 hours incubation, read-out: GI50 BG
Text: as §1, §2, §3, §4, §5, §6, §7

[15] = tested on: SGC-7901 (human gastric cancer cells); assay: MTT cancer cell growth inhibition; assay type: cell-based; details: Homo sapiens, SGC-7901, 72 h, MTT, 72 hours incubation, SGC-7901 cells; read-out: GI50 SGC-7901
Text: as §1, §2, §3, §4, §5, §6, §7

[16] = tested on: MOLT-4 (human acute lymphoblastic leukemia cells); assay: MTT cancer cell growth inhibition; assay type: cell-based; details: Homo sapiens, MOLT-4, 72 h, MTT, 72 hours incubation, read-out: GI50 Mol
Text: as §1, §2, §3, §4, §5, §6, §7

[17] = tested on: DU145 (human prostate cancer cells); assay: MTT cancer cell growth inhibition; assay type: cell-based; details: Homo sapiens, DU-145, 72 h, MTT, 72 hours incubation, read-out: GI50 Du1
Text: as §1, §2, §3, §4, §5, §6, §7

[18] = tested on: U937 (human leukemia cells); assay: MTT cancer cell growth inhibition; assay type: cell-based; details: Homo sapiens, U-937, 72 h, MTT, 72 hours incubation, read-out: GI50 U93
Text: as §1, §2, §3, §4, §5, §6, §7

[19] = tested on: MCF-7 (human breast cancer cells); assay: MTT cancer cell growth inhibition; assay type: cell-based; details: Homo sapiens, MCF7, 72 h, 72 hours incubation, read-out: GI50 MCF
Text: as §1, §2, §3, §4, §5, §6, §7

[20] = tested on: MDA-MB-231 (breast cancer cells); assay: MTT cancer cell growth inhibition; assay type: cell-based; details: Homo sapiens, MDA-MB-231, 72 h, read-out: GI50 MDA-MB-231, MTT, 72 hours incubation, MDA-MB-231 cells
Text: as §1, §2, §3, §4, §5, §6, §7

[21] = tested on: PANC-1 (Pac-1, human pancreatic cancer cells); assay: MTT cancer cell growth inhibition; assay type: cell-based; details: Homo sapiens, PANC-1, 72 h, MTT, 72 hours incubation, read-out: GI50 PAN
Text: as §1, §2, §3, §4, §5, §6, §7

IC50 HDAC7 [1] | GI50 [2] [nM] | GI50 [3] [nM] | GI50 [4] [nM] | GI50 [5] [nM] | GI50 [6] [nM] | GI50 [7] [nM] | GI50 [8] [nM] | GI50 [9] [nM] | GI50 [10] [nM] | GI50 [11] [nM] | GI50 [12] [nM] | GI50 [13] [nM] | GI50 [14] [nM] | GI50 [15] [nM] | GI50 [16] [nM] | GI50 [17] [nM] | GI50 [18] [nM] | GI50 [19] [nM] | GI50 [20] [nM] | also measured | SMILES
no activity | 71 | 67 | 70 | 30 | 38 | 34 | 53 | 60 | 58 | 40 | 67 | 69 | 60 | 45 | 30 | 30 | 50 | 50 | 38 | GI50 [21]: 60 nM | C/C=C1\NC(=O)c2ccc(F)c(n2)CNC(=O)C[C@@H](/C=C/CCSC(=O)CCCCCCC)OC(=O)[C@H](C(C)C)NC1=O [Example 32]
no activity | 36 | 73 | 60 | 60 | 75 | 53 | 49 | 90 | 34 | 80 | 42 | 32 | 80 | 63 | 90 | 70 | 80 | 70 | 25 | GI50 [21]: 80 nM | C/C=C1\NC(=O)c2nccc(n2)CNC(=O)C[C@@H](/C=C/CCS)OC(=O)[C@H](C(C)C)NC1=O [Compound 143]
no activity | 41 | 35 | – | – | 28 | 11 | 38 | – | 29 | – | 47 | 35 | – | 23 | – | – | – | – | 65 | GI50 ([4]; Hela cells): 60 nM; GI50 ([5]; lncap cells): 60 nM; GI50 ([9]; HT1080 cells): 90 nM; GI50 ([11]; A549 cells): 50 nM; GI50 ([14]; BGC-823 cells): 50 nM; GI50 ([16]; MOLT-4 cells): 90 nM; GI50 ([17]; DU145 cells): 60 nM; GI50 ([18]; U937 cells): 50 nM; GI50 ([19]; MCF-7 cells): 60 nM; GI50 ([21]; PANC-1 cells): 50 nM | C/C=C1\NC(=O)c2ccc(SC)c(n2)CNC(=O)C[C@@H](/C=C/CCSC(=O)CCCCCC)OC(=O)[C@H](C(C)C)NC1=O [Compound 152]
no activity | 17 | 47 | – | – | 35 | 81 | 78 | – | 29 | – | 42 | 27 | – | 67 | – | – | – | – | 51 | GI50 ([4]; Hela cells): 30 nM; GI50 ([5]; lncap cells): 40 nM; GI50 ([9]; HT1080 cells): 40 nM; GI50 ([11]; A549 cells): 40 nM; GI50 ([14]; BGC-823 cells): 90 nM; GI50 ([16]; MOLT-4 cells): 30 nM; GI50 ([17]; DU145 cells): 50 nM; GI50 ([18]; U937 cells): 30 nM; GI50 ([19]; MCF-7 cells): 80 nM; GI50 ([21]; PANC-1 cells): 10 nM | C/C=C1\NC(=O)c2cc(SC)cc(n2)CNC(=O)C[C@@H](/C=C/CCSC(C)=O)OC(=O)[C@H](Cc2cccc3ccccc23)NC1=O [Compound 199]
no activity | 45 | 41 | – | – | 21 | 32 | 41 | – | 43 | – | 36 | 45 | – | 23 | – | – | – | – | 38 | GI50 ([4]; Hela cells): 40 nM; GI50 ([5]; lncap cells): 50 nM; GI50 ([9]; HT1080 cells): 110 nM; GI50 ([11]; A549 cells): 30 nM; GI50 ([14]; BGC-823 cells): 10 nM; GI50 ([16]; MOLT-4 cells): 50 nM; GI50 ([17]; DU145 cells): 30 nM; GI50 ([18]; U937 cells): 40 nM; GI50 ([19]; MCF-7 cells): 30 nM; GI50 ([21]; PANC-1 cells): 80 nM | C/C=C1\NC(=O)c2nc(ccc2SC)CNC(=O)C[C@@H](/C=C/CCSC(=O)CCCCCCC)OC(=O)[C@H](Cc2ccccc2)NC1=O [Compound 189]
no activity | 53 | 34 | 50 | 30 | 38 | 37 | 27 | 30 | 62 | 50 | 34 | 41 | 40 | 51 | 30 | 30 | 20 | 60 | 38 | GI50 [21]: 30 nM | C/C=C1\NC(=O)c2cc(F)cc(n2)CNC(=O)C[C@@H](/C=C/CCSC(=O)CCCCC)OC(=O)[C@H](C(C)C)NC1=O [Example 37]
